Assay results: PubChem BioAssay (NCI)
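Values below derive from 48-hour exposures of cells grown in 96-well plates, with endpoints linearly interpolated between the two concentrations bracketing the appropriate inhibition level. TGI: total growth inhibition.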 Where a SMILES comes first, the peptide text is derived from it. The star is where a group is joined. Cbz = O=C(OCc1ccccc1)*; Boc = CC(C)(C)OC(=O)*; OSu = O=C1CCC(=O)N1O*; Bn = c1ccc(C*)cc1

Columns and labels:
Assay in all cases: NCI tumour cell line growth inhibition, 48 h
[1] = system: MDA-N
[2] = system: SR leukemia
[3] = system: RXF 393 renal
[4] = system: MCF7 breast
[5] = system: OVCAR-4 ovarian
[6] = system: BT-549 breast
[7] = system: CAKI-1 renal
[8] = system: NCI-H460 lung
[9] = system: CCRF-CEM leukemia
[10] = system: SF-539 CNS
[11] = system: MOLT-4 leukemia
[12] = system: HS 578T breast

| Structure (SMILES) | TGI [1] [µM] | TGI [2] [µM] | TGI [3] [µM] | TGI [4] [µM] | TGI [5] [µM] | TGI [6] [µM] | TGI [7] [µM] | TGI [8] [µM] | TGI [9] [µM] | TGI [10] [µM] | TGI [11] [µM] | TGI [12] [µM] |
| --- | --- | --- | --- | --- | --- | --- | --- | --- | --- | --- | --- | --- |
| O=c1[nH]nc(Cc2ccccc2)n1/N=C\c1ccccc1 | > 100 | > 100 | > 100 | > 100 | > 100 | > 100 | > 100 | > 100 | > 100 | > 100 | > 100 | > 100 |
| O=C(CSc1nc2[nH]ncc2c(=O)[nH]1)c1ccc(Cl)cc1 | > 100 | > 100 | > 100 | > 100 | > 100 | > 100 | > 100 | > 100 | > 100 | > 100 | > 100 | > 100 |
| CO/N=C(\C(=O)N(C)n1cnnc1)c1csc(NC(c2ccccc2)(c2ccccc2)c2ccccc2)n1 | > 10 | > 10 | > 10 | > 10 | > 10 | > 10 | > 10 | > 10 | > 10 | > 10 | > 10 | > 10 |
| O=c1oc2ccccc2c(O)c1/C=N/C(=S)NCCc1ccccc1 | > 100 | 41.7 | > 100 | > 100 | > 100 | > 84.7 | > 100 | > 70.3 | 86.1 | > 71.1 | > 100 | > 100 |
| CC(=O)CSc1c(-c2ccccc2)c(=O)n(-c2ccccc2)c(=S)n1-c1ccccc1 | > 100 | > 100 |  | > 100 | > 100 | > 100 | > 100 | > 100 | > 100 |  | > 100 | > 100 |
| CC(=O)Nc1ccc(-c2nc3ccccc3s2)cc1I | > 100 | > 100 | 37 | > 59.5 | > 100 | 81 | > 100 | > 100 | > 100 | 55.6 | > 100 | > 100 |
| CCN1C(=O)C(C)S/C1=N\NC(=O)CSc1nc2ccccc2c(=O)n1CC (stereo not drawn) | > 100 | > 100 | > 100 | > 100 | > 100 | > 100 | > 100 | 20.4 | > 100 | > 100 | > 100 | > 100 |
| c1ccc(CNCCCCNCCCNCc2ccccc2)cc1 | 26.3 | 56.1 | 32.7 | > 100 | 38.2 | 33.6 | 40.3 | 30.2 | 32.4 |  | 33.2 | 29.7 |
| N#Cc1c(N)[nH]c(=S)c(C#N)c1-c1ccccc1 | > 100 | > 100 | > 100 | > 100 |  | > 100 | > 100 | > 100 | > 100 | > 100 | > 100 | > 100 |
| CCOC(=O)C(C)NC(=O)C(C)NC(=O)C(C)NC(=O)C(C)NC(=O)C(C)NC(=O)OCc1ccccc1 (stereo not drawn) | > 100 | > 100 | > 100 | > 100 | > 100 | > 100 | > 100 | > 100 | > 100 | > 100 | > 100 | > 100 |
| CCOC(=O)c1cnc2n(c1=N)[C@H]1CCCC[C@@H]1N2 | > 100 | > 100 | > 100 | > 100 | > 100 | > 100 | > 100 | > 100 |  | > 100 | > 100 | > 100 |
| Cc1nc(N/N=C/c2ccccc2Cl)[nH]c(=O)c1CCO | > 100 | > 100 | 69.9 | > 100 | > 100 | > 100 |  | > 100 | > 100 | > 100 | > 100 | 81.1 |
| CCOc1ccc(N/C(Cl)=C(Cl)\C(=C(\Nc2ccc(OCC)cc2)n2nnc3ccccc32)[N+](=O)[O-])cc1 | 13.2 | 5.26 | 5.39 | 24.6 | 30.8 | 14 | 3.49 | > 59.7 | 33.9 | 11.1 | > 100 | > 100 |
| CN(C)P(=O)(Oc1ccc(CC(NC(=O)OCc2ccccc2)C(=O)OCc2ccccc2)cc1)N(C)C (stereo not drawn) | 34 | 24.6 | 32.7 | 31.6 | 39.1 | 32.4 | 32.8 | 48.8 | 7.56 | 39.7 | 13.7 | 67.5 |
| Cc1cc(S(=O)(=O)Nc2cc(N)[nH]n2)c(SCc2nc(N)nc(N(C)C)n2)cc1Cl | > 10 | > 10 | > 10 | > 10 | > 10 | > 10 | > 10 | > 10 | > 10 | > 10 | > 10 | > 10 |
| C=C(C)[C@H]1C=C[C@@H](OC(=O)c2cccnc2)[C@@]23CO[C@@](C)([C@H](OC(=O)c4cccnc4)[C@@]4(OC(C)=O)C[C@H](C)[C@H](OCCC)[C@@H]4[C@H]2OC(C)=O)[C@H]13 | > 15 | > 15 | > 15 | > 15 | > 15 | > 15 | > 15 | > 15 | > 15 | > 15 | > 15 | > 15 |
| Nc1ccn(C2CCC(CO)O2)c(=S)n1 (stereo not drawn) | > 100 | > 100 | > 100 | > 100 |  | > 100 | > 100 | > 100 | > 100 | > 100 | > 100 | > 100 |
| C=C(C)[C@@]1(OC(=O)c2cc([N+](=O)[O-])cc([N+](=O)[O-])c2)C[C@@H]2CCCC[C@@H]21 | > 100 | > 100 |  | > 100 | > 100 | > 100 | > 100 | > 100 | > 100 | > 100 | > 100 | > 100 |
| COc1cccc2c1OC(c1ccc(C#N)cc1)C([N+](=O)[O-])=C2 (stereo not drawn) | 2.87 | 3.11 | 3.12 | 2.88 | 3.11 | 2.85 | 4.89 | 4.92 | 4.51 | 4.23 |  | 5.74 |
| COc1ccc2cc(C(=O)O)ccc2c1OC | > 100 | > 100 |  | > 100 |  | > 100 | > 100 | > 100 | > 100 | > 100 | > 100 | > 100 |
| C=CCSC1=N/C(=C\c2cccs2)C(=O)N1CC=C | > 100 | > 100 | 64.2 | > 100 | > 100 | > 100 | > 100 | > 100 |  | > 100 | 62.2 | > 100 |
| CN(C)CCN=C1Nc2ccccc2C(=S)N2CSCC12 (stereo not drawn) | > 100 | > 100 | > 100 | > 100 | > 100 | > 100 | > 100 | > 100 | > 100 |  | > 100 | > 100 |
| CC(C)(C)OC(=O)NC(Cc1ccc(OCc2ccccc2)cc1)C(=O)NC(CCCCNC(=O)OCc1ccccc1)C(=O)ON1C(=O)CCC1=O (stereo not drawn) (Boc-Tyr(Bn)-Lys(Cbz)-OSu; configuration not given here) | 29.9 | 54.9 | 55.3 | 44.3 |  | 43.3 |  | 50.8 |  |  | 48.2 | 67.1 |
| CC1=C/C(=N\O)C(C(O)(C(F)(F)F)C(F)(F)F)C(C)(C)C1 (stereo not drawn) | > 10 | > 10 |  | > 10 | > 10 | > 10 | > 10 | > 10 | > 10 | > 10 | > 10 | > 10 |
| O=C(O)c1cc(/C=C/c2cc(O)ccc2O)ccc1O | > 10 | > 10 |  | > 10 | > 10 | > 10 |  | > 10 | > 10 | > 10 | > 10 | > 10 |
| CN(NC(=O)c1cccs1)C1=NCCCCN1 | > 100 | > 100 | > 100 | > 100 | > 100 | > 100 |  | > 100 | > 100 | > 100 | > 100 | > 100 |
| O=C(Nc1ccccc1)N(C1=NCC(CI)S1)c1ccc(F)cc1F (stereo not drawn) | > 100 | 65.7 | > 100 | > 100 | > 100 | 89.4 | 66.9 |  | 48.1 | > 100 | 57 | > 100 |
| C=C[C@@H]1C[C@]2(C(=O)OC)Cc3nc4ccccc4nc3CC(C(=O)OC)=C2O1 | > 100 |  | > 100 | > 100 | > 100 | > 100 | > 100 | > 100 | > 100 | > 100 | > 100 | > 100 |
